# Columns and labels:
# [1] = system: angiogenesis due to bFGF (rat cornea); experiment: Angiogenesis inhibitory action by the rat cornea micropocket method; assay type: in vivo, male Sprague-Dawley rats; settings: sustained release pellet, 20 μg sample, next to bFGF pellet (250 ng) in cornea; observed after 10 days
# Text: Angiogenesis inhibitory action by the rat cornea micropocket method
# Essentially the same method of Gimbrone et al. [J. National Cancer Institute 52:413-419 (1974)] was follows.
# Specifically, adult male Sprague-Dawley rats (11 to 16 week old) were anesthetized with nembtal and locally anesthetized by instillation of xylocaine eyedrops onto the eyeball. The cornea was incised to a length of about 2 mm at about 2 mm inside from the corneal circumference by means of an injection needle, and a basic fibroblast growth factor (bFGF, bovine brain-derived, purified product, R & D Inc.) and a sustained release pellet containing the test sample were inserted side by side into the incision so that the bFGF pellet was located on the central side in the cornea. In the control group, the bFGF pellet and a sample-free pellet were inserted into the cornea. After 10 days, the cornea was observed under a stereoscopic microscope.
# The sustained release pellets were prepared in the following manner. An ethylene-vinyl acetate copolymer (Takeda Chemical Industries, Ltd.) was dissolved in dichloromethane to a concentration of 8%. A 3 μl portion of the solution was air-dried on a glass dish, an aqueous solution of bFGF (250 ng) was then placed thereon and air-dried and, finally 3 μl of the above-mentioned ethylene-vinyl acetate copolymer solution was placed further thereon and air-dried to give a sandwich sheet. This sandwich sheet was made round into a bFGF pellet. The test sample pellets were prepared by dissolving each sample in ethanol to a concentration of 20 μg/2 μl, mixing the solution with 6 μl of an ethylene-vinyl acetate copolymer solution, air-drying the mixed solution on a glass dish and making the thus-obtained sheet round.
# In the above Table 1, the number of rats subjected to the test was shown by denominator, and the number of rats whose […] due to bFGF was retarded or weakened by administration of the test sample was shown by numerator. In the judgment, +means an inhibition rate of 70% or more, and ±means that of less than 70% but exceeding 40%.
# M5076 cells = experiment: Antitumor test in mice inoculated subcutaneously with M5076 cells (tumor size, T/C); assay type: in vivo, C57BL/6 mice; settings: Mus musculus, M5076, sc, 312 h, 30 mg/kg, subcutaneous, 10 times in total; tumor size after 13 days; read-out: T/C (%) (ratio of tumor size to control group)
# Description: C57BL/6 mice (a group consisting of 6 mice) were inoculated subcutaneously at the dorsolateral area with 2×10^6 M5076 cells, and then a test compound dissolved in a 5% gum arabic physiological saline solution was subcutaneously administered 10 times in total, i.e. 1st, 2nd, 4th, 5th, 6th, 7th, 8th, 9th, 11th and 12th day after the inoculation. After 13 days, the major axis (a) and the minor axis (b) of the tumor tissue were measured to determine the tumor size by the calculation formula of a×b^2 ×1/2. The ratio of the tumor size thus calculated to the tumor size of animals in the control group was shown by T/C (%).
smiles,measurement,setting,value
"CO[C@@H]1[C@H](OC(=O)NC(=O)CCl)CC[C@](O)(CCl)[C@H]1[C@@]1(C)O[C@@H]1CC=C(C)C [Example 1c, 4-O-(Chloroacetylcarbamoyl)-2-(1,2-epoxy-1,5-dimethyl-4-hexenyl)-3-methoxy-1-chloromethyl-1,4-cyclohexanediol]",Inhibitory Rate (rats whose angiogenesis due to bFGF was retarded or weakened / rats subjected to the test),[1],5/5
same,Judgment (Angiogenesis Inhibitory Activity),[1],+ (an inhibition rate of 70% or more)
same,response vs control in vivo at 30 mg/kg,M5076 cells,20%
